This is an account of results in patent US9981983B2, “Thienopyranones as kinase inhibitors” (SignalRx Pharmaceuticals, Inc., priority 2008, dated 2018).

Molecules are shown by their SMILES. Where two headings read alike, the source gives them in different places.

Data set [1] can be described thus: Cell proliferation MTS assay, Hela. The class given is cell-based. The settings on record: Homo sapiens, 72 hours, read-out: IC50 Hela (Colon). Here is the method:
(§1) All cell lines were obtained from ATCC and cultured and plated according to ATCC recommendations. Cells were cultured in complete culture media containing 10% heat-inactivated fetal bovine serum (FBS, Mediatech, Inc.). For adherent cell lines, once cells reached 70% confluency, they were trypsinized and resuspended in phenol red free RPMI media (Mediatech, Inc.) plus 10% heat-inactivated FBS (assay buffer) and 100 μL aliquots were plated into each well of 96-well microtiter plates at a final density of 1,000-2,000 cells/well. Cells were incubated overnight at 37° C. in 5% CO2, and treated with test compounds on the next day. For suspension cell lines, cells were resuspended in assay buffer, plated into 96-well microtiter plates at a density of 10^4-10^5 cells/well/100 μL, and treatment was started on the same day. Cells were treated with vehicle (DMSO) and test compounds for 72 hours at concentration of 100, 70, 40, 20, 10, 5, 2.5, 1.25, 0.5 and 0.2 μM in four replicates at 37° C. in 5% CO2.
In general terms: Formazan colour is commonly taken as a measure of viable cells.

The subject of data set [2] is AKT Ser473 phosphorylation in PC3 (prostate cancer) Cell Line. Briefly: pAKT Ser473 ELISA in PC3 cells stimulated by Bv8, VEGF, IGF. The class given is cell-based. As to conditions: Homo sapiens, PC-3, PC3, read-out: Concentration Required to Inhibit pAKT to Half-maximal Levels. Here is the method: This was followed by the addition of IGF, VEGF and Bv8 to 0.1 μg/mL, 0.1 μg/mL and 2.5 μg/mL respectively for another 30 minutes before harvesting the cells and making cell lysates with RIPA buffer keeping on ice, pAKT levels were measured in duplicate samples with Cell Signaling's Ser473 pAKT ELISA kit. Optical density plate readings of pAKT levels were made at 450 nm (OD450 nm) and were normalized by total protein amount of the cell lysates. The dose of compound at which pAKT levels are reduced to 50% of the non-treatment level was calculated using GraphPad Prism4 software and is listed in Tables 4 and 5 below.
For orientation: ELISA stands for enzyme-linked immunosorbent assay.

In another data set the test system is Panc-1 (Pancreas). Description: Cell proliferation MTS assay, Panc-1. Format: cell-based. As to conditions: Homo sapiens, 72 hours. As for the experimental part: as §1
Another data set has as its system OVCAR3 (Ovary). Briefly: Cell proliferation MTS assay, OVCAR3. The class given is cell-based. The settings on record: Homo sapiens, OVCAR-3, 72 hours. As for the experimental part: as §1
The test system of another data set is 786-O cells. Briefly: Cellular proliferation (Example B method), 786-O. Format: cell-based. The settings on record: Homo sapiens, 786-0, renal cell carcinoma. As for the experimental part: PC3 cells were obtained from the American Type Culture Collection (ATCC, Manassas, Va., Cat.# CRL-1435) Two thousand cells from the prostate cancer line PC3 were placed in 50 μL of complete RPMI 1640 media (Invitrogen, Carlsbad, Calif., Cat.#22400-105) with 10% fetal bovine serum (Invitrogen, Carlsbad, Calif., Cat.#10438-026) into each well of 96 well cell culture plates in a hexaplicate sampling pattern. A 50 μL aliquot of test compound (prepared from stock test compounds in DMSO diluted into media) was added to the appropriate well such that the final concentrations of test compound were 200, 40, 8, 1.6, 0.32, 0.064, 0.0128, 0.00256, and 0 μM and the final DMSO concentration was less than or equal to 0.2%.
The plates were incubated for 72 hours 37° C. in an atmosphere of 5% CO2. At the end of this time a 10 μL aliquot of WST solution (Roche Applied Science, Mannheim, Germany) was added into each of the wells. Cells were exposed to the WST solution for 4 hours. A SpectraMax Plus spectrophotometric plate reader (Molecular Devices, Sunnydale, Calif.) was then used to measure the optical density at 450 nm (OD450 nm). Sigmoidal curves were drawn for the dose responses and IC50 values were calculated using the software package GraphPad Prism4 (GraphPad Software, Inc., San Diego, Calif.).
Several other cancer cell lines were obtained from ATCC and grown according to their recommendations and treated with test compounds to obtain the concentration of test compound that inhibited the cellular proliferation by 50% of no-treatment controls. These IC50 values (μM) are listed in Table 7 below obtained by the methods described in Example B: […]

The subject of data set [3] is 786-0 renal cell carcinoma xenograft. Briefly: 786-0 renal cell carcinoma xenograft mouse model. Format: in vivo, nude mice. The settings on record: ip, 3×/wk for 4 weeks. Here is the method: To determine if Cpd 9 has anti-tumor effects, an in vivo study was conducted in a 786-0 renal cell carcinoma xenograft model, 786-0 cells (2×10^6) were inoculated subcutaneously into nude mice in the flank area and tumor growth was monitored with calipers via external measurements. Tumor volume was calculated using the formula volume=(length×width^2)/2. When the average tumor volume reached 400 mm^3, mice were randomly divided into 2 groups and treated with either DMSO (control) or Cpd 9 (25 mg/kg, ip) three times weekly (M, W, F) for two weeks.
To determine if Cpd 28 has anti-tumor effects, an in vivo study was conducted in a 786-0 renal cell carcinoma xenograft model, 786-0 cells (2×10^6) were inoculated subcutaneously into nude mice in the flank area and tumor growth was monitored with calipers via external measurements. Tumor volume was calculated using the formula volume=(length×width^2)/2. Treatment was started when tumors reached an average volume of 300 mm^3. […] DMSO was used as control since this was the vehicle the compounds were dissolved in. Tumor size was monitored twice weekly and body weight was monitored once weekly. Means and standard deviations were calculated and the Student t test method was used for statistical comparisons.

Regarding `O=c1cc(N2CCOCC2)oc2c(-c3ccc4c(c3)OCCO4)csc12` [Compound 28, 3-(2,3-dihydrobenzo[b][1,4]dioxin-6-yl)-5-morpholino-7H-thieno[3,2-b]pyran-7-one], the IC50 in data set [1] stood at 2100 nM; in data set [2] (stimulant Bv8), 116 nM; in data set [2] (stimulant IGF), 888 nM; in data set [2] (stimulant PBS) it was 229 nM; in data set [2] (stimulant VEGF) it was 152 nM; in the data set on Panc-1 (Pancreas), 18400 nM. Further, the IC50 in the data set on OVCAR3 (Ovary) was determined as 1240 nM; in the data set on 786-O cells, 3320 nM. The “tumor growth inhibition compared to control” value in data set [3] (25 mg/kg) is 70%; in data set [3] (50 mg/kg), 81%. Further, in data set [3] (50 mg/kg), the “body weight change or other abnormalities” value is “no significant body weight change or other abnormalities noted”.
